Earlier results as cited in patent US20140088145A1 (Teva Pharmaceutical Industries, Ltd., priority 2012, published 2014).

Assays:
[1] = tested on: Huntington's disease patients; conditions: 45 mg daily or 90 mg daily for 6 months
[2] = tested on: Huntington's disease patients; conditions: twice-daily doses of 45 mg over 12 weeks
[3] = tested on: patients with HD
[4] = in vivo

| absolute bioavailability [4] | Compound | tertiary endpoint UHDRS-TMS (changes in motor function) and individual items within the mMS (gait, dysarthria) [1] | effect on total motor function [2] | symptomatic relief incl. hand movements, gait and balance [3] |
| --- | --- | --- | --- | --- |
| – | CCCN1CCC(c2cccc(S(C)(=O)=O)c2)CC1 [pridopidine, 4-[3-(methylsulfonyl)phenyl]-1-propyl-piperidine] | statistically significant effect of treatment | significant effect on total motor function | significant symptomatic relief |
| about 36% | C#CCN[C@@H]1CCc2ccccc21 [rasagiline, R(+)-N-propargyl-l-aminoindan] | – | – | – |
